Laboratory results taken from US20240228572A1 (i2o Therapeutics, Inc., priority 2020, published 2024).
*1 amine or outer side, *2 acyl side, *3 side chain or, on linkers, in order; H or OH if unused. Where a SMILES comes first, the peptide text is derived from it. Side-chain parts run from the residue outwards. [ ]: non-standard residue; d: D form. The star is where a group is joined. C20 diacid = O=C(O)CCCCCCCCCCCCCCCCCCC(=O)*; γGlu = O=C(O)[C@H](CCC(=O)[*:2])N[*:1]; AEEA = NCCOCCOCC(=O)O; Aib = CC(C)(N)C(=O)O

Columns and labels:
[1] = Metabolic stability in rat kidney brush border membranes (kBBM); format: in vitro ADME; conditions: 1 mcM peptide, 50 mcg protein/mL, 37° C., pH 7.4, read-out: kBBM t½ (converted)
Procedure: (§1) Brush border membranes from rat and human kidney tissue were prepared via centrifugation and stored at −70° C. Thawed stocks of rat or human kBBM were diluted to the appropriate concentration in 25 mM HEPES buffer (pH 7.4) containing 1% casein and aliquoted into a 96-well plate. The kBBM solutions were pre-warmed for 10 minutes at 37° C. Reactions were initiated by the addition of test peptide (1 mcM final concentration) also dissolved in 25 mM HEPES buffer (pH 7.4) containing 1% casein. The final concentration of kBBM in each incubation was 50 mcg protein/mL. Reactions were maintained at 37° C. in a shaking water bath. At 0, 0.25, 0.5, 1.0, 2.0, and 4.0 h post-initiation, 30 mcL of the reaction mixture was removed and placed into a 96-well plate containing 120 mcL of ice-cold methanol containing 2.5% formic acid. Quenched samples were centrifuged at 2178×g for 10 min and then a portion of the supernatants were transferred to a clean 96-well plate and diluted 1:1 with water.

rat GCGR = target: T1, rat GCGR (Rattus norvegicus, UniProt P30082); test: cAMP accumulation assay, CHO-K1 cells expressing rat GCGR; format: cell-based
T1 construct: A cDNA fragment encoding the full-length open reading frame of the rat GCGR; expressed in transfected cells; host or cells: CHO-K1, pcDNA3.1+, Lipofectamine 2000
T1 sequence (P30082 27-485): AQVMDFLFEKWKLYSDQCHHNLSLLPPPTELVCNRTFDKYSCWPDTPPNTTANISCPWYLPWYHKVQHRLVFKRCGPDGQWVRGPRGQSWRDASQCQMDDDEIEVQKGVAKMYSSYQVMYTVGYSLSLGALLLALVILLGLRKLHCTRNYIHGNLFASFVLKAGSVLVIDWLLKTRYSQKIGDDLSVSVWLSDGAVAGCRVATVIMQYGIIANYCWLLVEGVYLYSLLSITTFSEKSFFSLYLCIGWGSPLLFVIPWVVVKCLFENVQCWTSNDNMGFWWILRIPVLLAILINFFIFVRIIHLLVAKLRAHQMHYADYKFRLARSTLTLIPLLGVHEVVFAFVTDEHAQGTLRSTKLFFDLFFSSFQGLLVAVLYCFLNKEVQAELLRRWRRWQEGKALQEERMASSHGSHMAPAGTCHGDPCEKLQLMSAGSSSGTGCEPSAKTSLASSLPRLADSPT
Description: In the presence of the non-specific cAMP/cGMP phosphodiesterase inhibitor, 3-isobutyl-1-methylxanthine (IBMX), accumulating cAMP can be measured in vitro using common detection methods. Thus, it is possible to estimate an in vitro potency (pEC50) for peptides activating each of these receptors using fit dose-response curves for cAMP accumulation.
A cDNA fragment encoding the full-length open reading frame of the cynomolgus monkey GLP-1R (Genebank accession #XM_028847603 was cloned into pcDNA3.1+ for expression in CHO-K1 cells. A cDNA fragment encoding the full-length open reading frame of the human GCGR (Genebank accession #NM_000160 was cloned into pcDNA3.1+ for expression in CHO-K1 cells. A cDNA fragment encoding the full-length open reading frame of the rat GCGR (Genebank accession #NM_12091 was cloned into pcDNA3.1+ for expression in CHO-K1 cells. A cDNA fragment encoding the full-length open reading frame of the cynomolgus monkey GCGR (Genebank accession #XM_005585255 was cloned into pcDNA3.1+ for expression in CHO-K1 cells. […]
Peptides were serially diluted 4-fold in assay buffer to final concentrations ranging from 1×10^−9 M to 9.5×10^−16 M. Two assay controls consisting of 50 mcM forskolin (cAMP system maximum) or assay buffer only (cAMP system minimum) were also prepared. […] Plates were read on an Envision fluorescent plate reader (PerkinElmer). […]

[2] = Stability in subcutaneous (SC) tissue homogenates, rat; format: in vitro ADME; conditions: subcutaneous (SC) tissue homogenate, pH 7.4, read-out: (H)SC tissue stability t½ (converted)
Procedure: In vitro incubations in subcutaneous (SC) tissue homogenates were used to characterize the ability of peptides to resist pre-systemic degradation by proteases and peptidases after SC administration. In vivo nonclinical studies have shown that peptidase activity in the SC space can limit the bioavailability of a peptide after SC administration. Peptides with high SC bioavailability are stable in this assay, while peptides with low SC bioavailability are unstable in this assay.
Human SC tissue was homogenized in cold 25 mM HEPES buffer (pH 7.4, 10-fold volume based on sample weight), and then filtered through a double layer of cheesecloth. The filtrates were aliquoted, flash frozen on a methanol/dry ice bath and stored at −80° C. The protein concentration of each pooled batch was determined using the BCA protein assay. Thawed stocks of human SC tissue homogenates were diluted to 1.0 mg protein/mL in 25 mM HEPES buffer (pH 7.4) and aliquoted into a 96-well plate. The diluted SC homogenates were pre-warmed for 10 minutes at 37° C. Reactions were initiated by the addition of test peptide (10 mcM final concentration) also dissolved in 25 mM HEPES buffer (pH 7.4). Reactions were maintained at 37° C. in a shaking water bath. […] Samples were analyzed by UPLC-MS/MS.

[3] = Metabolic stability in monkey kidney brush border membranes (kBBM); format: in vitro ADME; conditions: pH 7.4, read-out: kBBM t½
Procedure: as §1

SMILES: CC(C)C[C@H](NC(=O)[C@H](Cc1ccc(O)cc1)NC(=O)[C@H](CCCCN)NC(=O)[C@H](CO)NC(=O)[C@H](Cc1ccc(O)cc1)NC(=O)[C@H](CC(=O)O)NC(=O)[C@H](CO)NC(=O)[C@@H](NC(=O)[C@H](Cc1ccccc1)NC(=O)[C@@H](NC(=O)CNC(=O)[C@H](Cc1c[nH]cn1)NC(=O)[C@H](CO)NC(=O)[C@@H](N)Cc1ccc(O)cc1)[C@@H](C)O)[C@@H](C)O)C(=O)N[C@@H](CC(=O)O)C(=O)NC(C)(C)C(=O)N[C@@H](CCCCN)C(=O)N[C@@H](Cc1ccc(O)cc1)C(=O)N[C@@H](C)C(=O)N[C@@H](CCC(N)=O)C(=O)N[C@@H](CCCCNC(=O)CC[C@H](NC(=O)CC[C@H](NC(=O)COCCOCCNC(=O)CCCCCCCCCCCCCCCCCCC(=O)O)C(=O)O)C(=O)O)C(=O)N[C@@H](Cc1ccccc1)C(=O)N[C@H](C(=O)NC(C)(C)C(=O)N[C@@H](Cc1c[nH]c2ccccc12)C(=O)N[C@@H](CC(C)C)C(=O)N[C@@H](CCC(=O)O)C(=O)N[C@@H](CC(=O)O)C(=O)N[C@@H](CCC(=O)O)C(=O)N1CCC[C@H]1C(=O)N[C@@H](CO)C(=O)N[C@@H](CO)C(=O)NCC(=O)N[C@@H](C)C(=O)N1CCC[C@H]1C(=O)N1CCC[C@H]1C(=O)N1CCC[C@H]1C(=O)N[C@@H](CO)C(=O)O)C(C)C [Compound A6] (H-YSHGTFTSDYSKYLD[Aib]KYAQK([γGlu-γGlu-AEEA-C20 diacid])FV[Aib]WLEDEPSSGAPPPS-OH; N-terminus assumed)
- half-life at 1 mcM [1]: 6.6 h
- EC50 (rat GCGR): 0.0501 nM
- half-life at 10 mcM [2]: 9 h
- half-life at 1 mcM [3]: > 12 h
